Laboratory results from ChEMBL document CHEMBL1240402 (2010).
Active and inactive are the calls of the source. The calls are words filed in the database; no cut-off is given here.

Key:
Type in all cases: functional
Clostridium perfringens [1] = test: Antimicrobial activity against Clostridium perfringens LFM1 assessed as susceptibility breakpoint by EUCAST method
Clostridium perfringens [2] = test: Antimicrobial activity against Clostridium perfringens LFM1 assessed as susceptibility breakpoint by DIN-standardized microdilution method
Escherichia coli = test: Antimicrobial activity against flo gene positive Escherichia coli
Clostridium perfringens [3] = test: Antimicrobial activity against Clostridium perfringens LFM1 assessed as susceptibility breakpoint by DANMAP method

SMILES | Activity (Clostridium perfringens [1]) | Activity (Clostridium perfringens [1]; record 2) | Activity (Clostridium perfringens [2]) | MIC (Escherichia coli) | Activity (Clostridium perfringens [3])
CC(=O)NC[C@H]1CN(c2ccc(N3CCOCC3)c(F)c2)C(=O)O1 [LINEZOLID] | inactive | <=2 mg/L | <=2 mg/L | > 64 µg/mL | <=2 mg/L
CC[C@H]1OC(=O)[C@H](C)[C@@H](O[C@H]2C[C@@](C)(OC)[C@@H](O)[C@H](C)O2)[C@H](C)[C@@H](O[C@@H]2O[C@H](C)C[C@H](N(C)C)[C@H]2O)[C@](C)(O)C[C@@H](C)C(=O)[C@H](C)[C@@H](O)[C@]1(C)O |  |  | inactive |  | 
CCC[C@@H]1C[C@@H](C(=O)N[C@@H]([C@H]2O[C@H](SC)[C@H](O)[C@@H](O)[C@H]2O)[C@H](C)Cl)N(C)C1 |  |  | inactive |  | 
CS(=O)(=O)c1ccc([C@@H](O)[C@@H](CF)NC(=O)C(Cl)Cl)cc1 [FLORFENICOL] |  |  |  | > 32 µg/mL | inactive
O=C(N[C@H](CO)[C@H](O)c1ccc([N+](=O)[O-])cc1)C(Cl)Cl |  |  |  |  | inactive
